Laboratory results: the supplement of paper PMC5579334

Experiments:
[1] = tested on: YST-1; assay: relative IC50 (inflection point of fitted dose-response curve, CellTiter-Glo viability, 72 h; top asymptote may be below 50% inhibition); higher = less potent
Method in brief: (§1)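 Viability was scored by CellTiter-Glo ATP luminescence, scaled from vehicle to positive-control wells, with duplicates averaged where present. The cells, MPNST lines and primary human Schwann cells at 750–1000 per well, sat 72 h at 37 °C, 5% CO2, in 384-well plates preprinted with each compound at five concentrations in 10-fold steps. Four-parameter logistic fits were run on the data. These fits give drug sensitivity score and relative IC50 censored at the top concentration, and percent inhibition is reported at the top concentration.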

[2] = tested on: HS-PSS; assay: as above
Method in brief: as §1

[3] = tested on: HS-Sch-2; assay: as above
Method in brief: as §1

[4] = tested on: HS-PSS; assay: relative IC50 (inflection point of fitted dose-response curve, CellTox-Green cytotoxicity, 72 h; top asymptote may be below 50%); higher = less potent
Method in brief: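 MPNST cell lines and primary human Schwann cells were incubated 72 h at 37 °C in 384-well plates holding five 10-fold compound dilutions. CellTox-Green was added before seeding at a final 1:1000 dilution and reported fluorescence from DNA released by disrupted cells. Signals were scaled to vehicle and positive-control wells, and cultures failing plate quality control were dropped. Drug sensitivity score and relative IC50 come from four-parameter logistic fits, with IC50 censored at the top concentration.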

SMILES | relative IC50 [1] [nM] | relative IC50 [2] [nM] | relative IC50 [3] [nM] | relative IC50 [4] [nM]
CC(=O)NCC(=O)N1[C@@H]2CC[C@H]1c1ccc(Nc3ncc(C(F)(F)F)c(NC4CCC4)n3)cc12 | 749 | 960 | 946 | 
CC(C)(C)C[C@@H]1N[C@@H](C(=O)N[C@H]2CC[C@H](O)CC2)[C@H](c2cccc(Cl)c2F)[C@]12C(=O)Nc1cc(Cl)ccc12 | 140 | 3280 |  | > 10000
CC(C)CC(=O)Nc1n[nH]c2c1CN(C(=O)C1CCN(C)CC1)C2(C)C | 859 | 604 | 1290 | 
CC(C)Oc1ccc(C(=O)N[C@H](CNC(=O)CN(C)C)Cc2ccc(-c3cn4cccc([C@H](C)O)c4n3)cc2)cc1Cl | 75.4 | 757 | 72.3 | 
CCc1cc(Nc2nccc(-c3c(-c4ccc(OC)c(C(=O)Nc5c(F)cccc5F)c4)nc4ccccn34)n2)c(OC)cc1N1CCC(N2CCN(S(C)(=O)=O)CC2)CC1 | 31.2 | > 10000 |  | > 10000
CN(c1ncccc1CNc1nc(Nc2ccc3c(c2)CC(=O)N3)ncc1C(F)(F)F)S(C)(=O)=O | 2010 | 3340 | 3410 | 
CNC(=O)c1c(F)cccc1Nc1nc(Nc2cc3c(cc2OC)CCN3C(=O)CN(C)C)nc2[nH]ccc12 | 73 | 32.1 |  | 
CNc1nc(-c2ccc3c(N)n[nH]c3c2)cc(N2C[C@@H](C(=O)NC3CCCCC3)CC[C@H]2C)n1 | 585 | 3050 |  | > 10000
COCC(=O)NC/C=C/c1ccc2ncnc(Nc3ccc(Oc4ccc(C)nc4)c(C)c3)c2c1 |  | 1540 | 1250 | > 10000
COc1cc2ncnc(Oc3cccc(NC(=O)Nc4cc(C(C)(C)C(F)(F)F)on4)c3)c2cc1OC |  | > 10000 | > 10000 | > 10000
C[C@H]1Oc2cc(cnc2N)-c2c(nn(C)c2C#N)CN(C)C(=O)c2ccc(F)cc21 | > 1000 | 10.7 |  | > 1000
Cc1ccc2nc(CN(CCN(Cc3nc4ccc(C)cc4[nH]3)Cc3nc4ccc(C)cc4[nH]3)Cc3nc4ccc(C)cc4[nH]3)[nH]c2c1 | 7770 | 7700 | 8240 | 
O=C1c2ccccc2-c2n[nH]c3cccc1c23 | 20100 | 13300 | 13900 | 
CN(C)C(=O)c1ccc(S(=O)(=O)c2ccc(NC(=O)[C@@](C)(O)C(F)(F)F)c(Cl)c2)cc1 [AZD7545] | > 10000 | 3910 |  | > 10000
Cc1cc([C@@H](C)Nc2ccccc2C(=O)O)c2nc(N3CCOCC3)cc(=O)n2c1 [AZD-6482] |  | > 2500 | > 2500 | > 2500
CCc1cc2c(cc1N1CCC(N3CCOCC3)CC1)C(C)(C)c1[nH]c3cc(C#N)ccc3c1C2=O [Alectinib] |  | 34.8 | > 1000 | > 1000
Cc1cc(-c2nc(-c3ccc(OC(F)(F)F)cc3)no2)nn1Cc1ccnc(N2CCN(C3CC3)CC2)c1 [BAY 87-2243] |  | 0.66 | 0.63 | > 1000
Cc1ccc(NC(=O)c2ccc(CN3CC[C@H](N(C)C)C3)c(C(F)(F)F)c2)cc1Nc1nccc(-c2cncnc2)n1 [Bafetinib] | 259 | > 1000 |  | > 1000
Cn1cnc2c(F)c(Nc3ccc(Br)cc3F)c(C(=O)NOCCO)cc21 [Binimetinib] | > 1000 | > 1000 |  | > 1000
CCN(CC)CCN(Cc1ccc(-c2ccc(C(F)(F)F)cc2)cc1)C(=O)Cn1c(SCc2ccc(F)cc2)nc(=O)c2c1CCC2 [Darapladib] |  | 224 | 192 | 250

SMILES | relative IC50 [1] [nM] | relative IC50 [2] [nM] | relative IC50 [3] [nM] | relative IC50 [4] [nM]
c1cn2cc(-c3ccc4cn[nH]c4c3)nc(Nc3ccc(N4CCOCC4)cc3)c2n1 [Entospletinib] |  | > 5000 | > 5000 | > 5000
CCNc1nc(Nc2cc(F)c(C(=O)N3CCOCC3)cc2OC)ncc1C(F)(F)F [GNE-7915] | > 1000 | > 1000 |  | > 1000
O=C(O)c1ccc(O)c2ncccc12 [IOX-1] | 36600 | > 100000 |  | > 100000
CCC(C)n1ncn(-c2ccc(N3CCN(c4ccc(OCC5COC(Cn6cncn6)(c6ccc(Cl)cc6Cl)O5)cc4)CC3)cc2)c1=O (centres undefined) [Itraconazole] | 1540 | 904 |  | > 5000
Cc1cnc(-c2ccccc2C(C)C)nc1NCc1ccc(-n2ccnn2)cc1 [ML323] |  | 1670 | 1460 | > 10000
CNC(=O)[C@@H](NC(=O)[C@H](CC(C)C)[C@H](O)C(=O)NO)C(C)(C)C [Marimastat] | > 10000 | > 10000 |  | > 10000
OC(CC1c2ccccc2-c2cncn21)C1CCCCC1 (centres undefined) [NLG919] |  | > 10000 | > 10000 | > 10000
COc1ccc(COc2cc3oc(=O)c4cc(C(C)O)ccc4c3cc2OC)cc1 (centres undefined) [Palomid-529] |  | > 10000 | > 10000 | > 10000
Nc1nc2[nH]cc(CCc3ccc(C(=O)N[C@@H](CCC(=O)O)C(=O)O)cc3)c2c(=O)[nH]1 [Pemetrexed] |  | > 10000 | 64.1 | > 10000
C=CC(=O)N1CCC(Oc2cc3c(Nc4ccc(Cl)c(Cl)c4F)ncnc3cc2OC)CC1 [Poziotinib] |  | > 1000 | > 1000 | > 1000
Cc1cc(C)c(/C=C2\C(=O)Nc3ccccc32)[nH]1 [Semaxanib] |  | > 10000 | > 10000 | 2280
Cc1c(C(=O)Nc2ccc(N3C[C@@H](C)O[C@@H](C)C3)nc2)cccc1-c1ccc(OC(F)(F)F)cc1 [Sonidegib] | > 10000 | 760 |  | > 10000
N#Cc1c(Oc2ccc(F)c(NC(=O)Cc3cccc(C(F)(F)F)c3)c2)ccc2nc(NC(=O)C3CC3)sc12 [TAK-632] |  | 3980 | 3860 | > 10000
NC(=O)Nc1sc(-c2ccc(F)cc2)cc1C(N)=O [TPCA-1] | 4330 | 3980 |  | > 25000
O[C@H]1CC[C@H](Nc2ncc3nc(Nc4c(F)cc(F)cc4F)n([C@H]4CCOC4)c3n2)CC1 [Tanzisertib] |  | > 10000 | > 10000 | > 10000
Cc1nc(-c2cn3c(n2)-c2ccc(-c4cnn(C(C)(C)C(N)=O)c4)cc2OCC3)n(C(C)C)n1 [Taselisib] | 24.9 | 425 |  | > 1000
CNC(=O)c1cc(COc2nnc(Nc3ccc(Cl)cc3)c3ccoc23)ccn1 [Telatinib] |  | > 10000 | > 10000 | > 10000
Cn1ncc(Cl)c1-c1cc(C(=O)N[C@H](CN)Cc2ccc(F)c(F)c2)oc1Cl [Uprosertib] |  | > 10000 | > 10000 | > 10000
O=C(O)CC1CC(c2ccccc2)=NO1 (centres undefined) [VGX-1027] | > 10000 | > 10000 |  | > 10000
CC1(C)CCC(CN2CCN(c3ccc(C(=O)NS(=O)(=O)c4ccc(NCC5CCOCC5)c([N+](=O)[O-])c4)c(Oc4cnc5[nH]ccc5c4)c3)CC2)=C(c2ccc(Cl)cc2)C1 [Venetoclax] |  | > 1000 | > 1000 | > 1000
